Here are results for 1 molecule from patent US12686846B2, “Plant sweet and yeast MSF transporter capable of transporting different sugars simultaneously” (THE BOARD OF TRUSTEES OF THE UNIVERSITY OF ILLINOIS, priority 2020, dated 2026).

Assay type in all cases: cell-based
Assay [1] addresses T1, Saccharomyces cerevisiae ScGal2 (Gal2) transporter, SEQ ID NO:32 (Saccharomyces cerevisiae, UniProt P13181).
T1 construct: expressed in transfected cells; host or cells: S. cerevisiae SR8D8 (SR8 with HXT1-7 and GAL2 deleted), plasmid p42K-GPD1p-CYC1t
T1 sequence (P13181 1-574): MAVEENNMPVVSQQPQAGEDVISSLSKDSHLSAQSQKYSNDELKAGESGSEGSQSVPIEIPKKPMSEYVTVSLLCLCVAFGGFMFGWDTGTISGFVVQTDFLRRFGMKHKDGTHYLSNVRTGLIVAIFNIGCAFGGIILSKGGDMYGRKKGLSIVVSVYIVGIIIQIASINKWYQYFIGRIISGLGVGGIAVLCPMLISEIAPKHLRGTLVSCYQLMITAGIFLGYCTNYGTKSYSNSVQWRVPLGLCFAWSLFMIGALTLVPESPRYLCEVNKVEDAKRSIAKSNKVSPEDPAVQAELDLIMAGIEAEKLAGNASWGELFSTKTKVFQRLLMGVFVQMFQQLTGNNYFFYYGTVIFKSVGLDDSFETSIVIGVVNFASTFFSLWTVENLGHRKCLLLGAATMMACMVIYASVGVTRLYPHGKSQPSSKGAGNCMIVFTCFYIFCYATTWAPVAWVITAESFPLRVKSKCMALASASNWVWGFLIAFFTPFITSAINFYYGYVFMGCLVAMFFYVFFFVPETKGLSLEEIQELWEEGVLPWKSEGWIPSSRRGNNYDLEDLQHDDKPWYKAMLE
Kind of assay: C14 labeled sugar uptake assay (zero-trans influx), SR8D8 expressing ScGal2. The conditions noted are these: initial xylose uptake (20 s), 30° C., pH 6.5; cell wet weight; ± SEM. Here is the method:
(§1) FIG. 7A illustrates sugar uptake kinetics by SR8D8. FIG. 7B illustrates sugar uptake kinetics by SR8D8 expressing AtSWEET1. FIG. 7C illustrates sugar uptake kinetics by SR8D8 expressing ScGal2. FIG. 7D illustrates sugar uptake kinetics by SR8D8 expressing AtSWEET7. FIG. 7E illustrates sugar uptake kinetics by SR8D8 expressing LST1_205437. Initial xylose uptake (20 s) was measured at 30° C. over a concentration range of 1 to 500 mM xylose. FIG. 7F illustrates sugar uptake kinetics by SR8D8. FIG. 7G illustrates sugar uptake kinetics by SR8D8 expressing AtSWEET1. FIG. 7H illustrates sugar uptake kinetics by SR8D8 expressing ScGal2. FIG. 7I illustrates sugar uptake kinetics by SR8D8 expressing AtSWEET7. FIG. 7J illustrates sugar uptake kinetics by SR8D8 expressing LST1_205437. Initial glucose uptake (5 s) was measured at 30° C. over a concentration range of 0.2 to 100 mM glucose. Curve fitting for Michaelis-Menten kinetics was applied to data of three independent measurements at each concentration.
(§2) A xylose fermenting S. cerevisiae yeast (SR8) with HXT1-7Δ, GAL2Δ deletions was used for transporter screening and characterization (SR8D8). SR8D8 was grown in YPE medium/plate (10 g/L yeast extract, 20 g/L peptone, and 5 g/L ethanol). […] Biomass was calculated from the OD600 measured using a Biomate 5 UV-visible spectrophotometer (Fisher, NY, USA). All growth rates were measured using a Bioscreen C plate reader system (Growth Curves USA, Piscataway, NJ, USA). […]
(§3) SR8D8 containing the respective plasmid was grown on selective YPE medium to an OD600 of 1-1.5, harvested by centrifugation, and washed twice in ice-cold uptake buffer (100 mM potassium phosphate, pH 6.5). […] Radioactivity was analyzed in a Beckman-Coulter LS6500 multi-purpose liquid scintillation counter (Beckman-Coulter, CA, USA).
(§4) Uptake was measured at sugar concentrations 0.2, 1, 5, 25, and 100 mM for glucose and 1, 5, 25, 66, 100, 200, and 500 mM for xylose. Inhibition of xylose uptake by glucose was measured at 25, 66, and 100 mM xylose with additional 25 and 100 mM unlabeled glucose.

Assay [2] concerns the target T2, Arabidopsis thaliana AtSWEET1 transporter, wild type, SEQ ID NO: 1 (Arabidopsis thaliana, UniProt Q8L9J7).
T2 construct: whole-cell 14C sugar uptake
T2 sequence (Q8L9J7 1-247): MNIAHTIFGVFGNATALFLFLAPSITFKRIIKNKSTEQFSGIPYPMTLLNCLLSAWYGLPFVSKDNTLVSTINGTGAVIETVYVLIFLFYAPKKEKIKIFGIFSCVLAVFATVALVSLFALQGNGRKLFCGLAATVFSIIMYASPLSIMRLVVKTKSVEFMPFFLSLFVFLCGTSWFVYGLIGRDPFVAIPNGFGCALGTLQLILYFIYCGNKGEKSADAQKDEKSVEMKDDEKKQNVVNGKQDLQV
Kind of assay: C14 labeled sugar uptake assay, SR8D8 expressing AtSWEET1. As to conditions: in words. How it is done: as §1, with “Curve fitting for Michaelis-Menten kinetics was applied to data of three independent measurements at each concentration.” left out
(§5) A xylose fermenting S. cerevisiae yeast (SR8) with HXT1-7Δ, GAL2Δ deletions was used for transporter screening and characterization (SR8D8). […] Biomass was calculated from the OD600 measured using a Biomate 5 UV-visible spectrophotometer (Fisher, NY, USA). All growth rates were measured using a Bioscreen C plate reader system (Growth Curves USA, Piscataway, NJ, USA). […]
(§6) Uptake was measured at sugar concentrations 0.2, 1, 5, 25, and 100 mM for glucose and 1, 5, 25, 66, 100, 200, and 500 mM for xylose. […]

Assay [3] deals with T3, Lipomyces starkeyi LST1_205437 transporter, wild type, SEQ ID NO: 4 (Lipomyces starkeyi, UniProt A0A1E3QE37).
T3 construct: whole-cell 14C sugar uptake
T3 sequence (A0A1E3QE37 1-603): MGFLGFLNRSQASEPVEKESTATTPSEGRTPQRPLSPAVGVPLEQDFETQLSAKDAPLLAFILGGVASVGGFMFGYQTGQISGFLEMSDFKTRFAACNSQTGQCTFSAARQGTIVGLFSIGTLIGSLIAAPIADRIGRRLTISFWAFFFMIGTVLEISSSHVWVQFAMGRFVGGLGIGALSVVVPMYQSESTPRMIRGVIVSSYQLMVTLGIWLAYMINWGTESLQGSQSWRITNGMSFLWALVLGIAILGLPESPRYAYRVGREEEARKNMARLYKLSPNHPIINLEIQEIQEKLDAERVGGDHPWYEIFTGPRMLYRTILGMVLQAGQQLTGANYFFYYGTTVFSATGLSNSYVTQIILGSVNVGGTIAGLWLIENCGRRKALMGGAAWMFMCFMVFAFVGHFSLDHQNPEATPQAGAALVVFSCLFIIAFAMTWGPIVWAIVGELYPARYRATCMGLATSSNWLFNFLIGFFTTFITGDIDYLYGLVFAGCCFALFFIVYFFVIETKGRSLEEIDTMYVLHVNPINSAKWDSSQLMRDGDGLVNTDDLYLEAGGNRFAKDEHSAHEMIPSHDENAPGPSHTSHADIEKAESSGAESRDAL
Kind of assay: C14 labeled sugar uptake assay (zero-trans influx), SR8D8 expressing LST1_205437. The conditions noted are these: initial xylose uptake (20 s), 30° C., pH 6.5. How it is done: as §1, §2, §3, §4

The target in assay [4] is T4, Arabidopsis thaliana AtSWEET7 transporter, wild type (Table 2: SEQ ID NO: 3; FIG. 12: SEQ ID NO:2) (Arabidopsis thaliana, UniProt Q8LBF7).
T4 construct: expressed in transfected cells; host or cells: S. cerevisiae SR8D8 (SR8 with HXT1-7 and GAL2 deleted), plasmid p42K-GPD1p-CYC1t
T4 sequence (Q8LBF7 1-258): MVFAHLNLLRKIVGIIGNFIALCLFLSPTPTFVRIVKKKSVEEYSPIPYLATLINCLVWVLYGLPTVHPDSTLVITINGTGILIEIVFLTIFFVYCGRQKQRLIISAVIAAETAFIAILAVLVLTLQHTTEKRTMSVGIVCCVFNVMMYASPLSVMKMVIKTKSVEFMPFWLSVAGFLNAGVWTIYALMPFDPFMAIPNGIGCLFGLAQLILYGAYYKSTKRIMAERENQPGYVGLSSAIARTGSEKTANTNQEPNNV
Kind of assay: C14 labeled sugar uptake assay (zero-trans influx), SR8D8 expressing AtSWEET7. As to conditions: initial xylose uptake (20 s), 30° C., pH 6.5; cell wet weight; ± SEM. Here is the method: as §1, with “Curve fitting for Michaelis-Menten kinetics was applied to data of three independent measurements at each concentration.” left out
as §5, §6

Turning to `OC1OC[C@@H](O)[C@H](O)[C@H]1O` (stereo partly drawn) [Xylose, D-xylose], the “Vmax (xylose)” value in assay [1] was found to be 88.7 ± 10.0 nmol/min/mg; in assay [3] it was 76.8 nmol/min/mg; in assay [3] (cell wet weight, ± SEM) it was 76.8 ± 9.0 nmol/min/mg; in assay [4], 100.9 ± 14.8 nmol/min/mg. Moreover, the xylose transport kinetics entry in assay [2] is recorded as “very poor xylose transport kinetics”.
